Article PMC3961306, “Comparison of the Cancer Gene Targeting and Biochemical Selectivities of All Targeted Kinase Inhibitors Approved for Clinical Use” (PLoS ONE, 2014)

Key:
Assay in all cases: Kinase profiling in a biochemical assay panel (mobility shift assays and ELISA), %-inhibition at 1 μM; selectivity entropy
[1] = molecular target: panel of more than 300 wild-type and mutant kinases (313 kinase panel) (Homo sapiens, UniProt Q13233)
[2] = molecular target: panel of more than 300 wild-type and mutant kinases (313 kinase panel) (Homo sapiens, UniProt Q9Y243)
[3] = molecular target: panel of more than 300 wild-type and mutant kinases (313 kinase panel) (Homo sapiens, UniProt Q13164)
[4] = molecular target: panel of more than 300 wild-type and mutant kinases (313 kinase panel) (Homo sapiens, UniProt Q9UBS0)
[5] = molecular target: T1, panel of more than 300 wild-type and mutant kinases (313 kinase panel) (Homo sapiens, UniProt P42680)
T1 sequence (P42680 1-631): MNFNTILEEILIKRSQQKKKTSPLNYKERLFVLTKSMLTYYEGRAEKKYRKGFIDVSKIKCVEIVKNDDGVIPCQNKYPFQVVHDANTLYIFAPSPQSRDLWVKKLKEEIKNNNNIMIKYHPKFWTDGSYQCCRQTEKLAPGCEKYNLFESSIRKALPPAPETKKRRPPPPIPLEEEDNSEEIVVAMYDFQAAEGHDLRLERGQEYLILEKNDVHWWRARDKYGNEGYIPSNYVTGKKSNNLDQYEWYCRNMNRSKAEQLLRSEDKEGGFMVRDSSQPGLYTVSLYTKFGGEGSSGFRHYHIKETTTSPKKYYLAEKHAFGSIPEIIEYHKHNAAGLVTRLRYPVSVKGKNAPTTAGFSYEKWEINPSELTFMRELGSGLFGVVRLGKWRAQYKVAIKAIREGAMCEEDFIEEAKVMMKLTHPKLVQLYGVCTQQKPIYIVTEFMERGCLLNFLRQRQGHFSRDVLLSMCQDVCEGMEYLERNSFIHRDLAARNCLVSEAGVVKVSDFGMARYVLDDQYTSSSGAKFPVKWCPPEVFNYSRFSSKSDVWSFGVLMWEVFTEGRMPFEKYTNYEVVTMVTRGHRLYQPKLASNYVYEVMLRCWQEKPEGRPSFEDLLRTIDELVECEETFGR

[6] = molecular target: panel of more than 300 wild-type and mutant kinases (313 kinase panel) (Homo sapiens, UniProt Q8N4C8)
[7] = molecular target: T2, panel of more than 300 wild-type and mutant kinases (313 kinase panel) (Homo sapiens, UniProt P53778)
T2 sequence (P53778 1-367): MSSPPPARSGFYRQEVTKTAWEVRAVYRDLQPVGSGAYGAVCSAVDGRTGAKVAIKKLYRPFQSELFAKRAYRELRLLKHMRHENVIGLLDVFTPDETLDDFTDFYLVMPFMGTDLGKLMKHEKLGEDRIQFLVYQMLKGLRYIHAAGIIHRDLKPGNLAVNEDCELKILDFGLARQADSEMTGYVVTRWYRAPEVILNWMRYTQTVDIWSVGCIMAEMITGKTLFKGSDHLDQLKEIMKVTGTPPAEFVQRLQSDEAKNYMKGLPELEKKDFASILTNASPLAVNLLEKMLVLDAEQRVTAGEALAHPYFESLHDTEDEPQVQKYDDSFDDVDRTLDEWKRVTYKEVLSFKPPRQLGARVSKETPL

[8] = molecular target: panel of more than 300 wild-type and mutant kinases (313 kinase panel) (Homo sapiens, UniProt Q15759)
[9] = molecular target: T3, panel of more than 300 wild-type and mutant kinases (313 kinase panel) (Homo sapiens, UniProt Q06418)
T3 sequence (Q06418 41-890): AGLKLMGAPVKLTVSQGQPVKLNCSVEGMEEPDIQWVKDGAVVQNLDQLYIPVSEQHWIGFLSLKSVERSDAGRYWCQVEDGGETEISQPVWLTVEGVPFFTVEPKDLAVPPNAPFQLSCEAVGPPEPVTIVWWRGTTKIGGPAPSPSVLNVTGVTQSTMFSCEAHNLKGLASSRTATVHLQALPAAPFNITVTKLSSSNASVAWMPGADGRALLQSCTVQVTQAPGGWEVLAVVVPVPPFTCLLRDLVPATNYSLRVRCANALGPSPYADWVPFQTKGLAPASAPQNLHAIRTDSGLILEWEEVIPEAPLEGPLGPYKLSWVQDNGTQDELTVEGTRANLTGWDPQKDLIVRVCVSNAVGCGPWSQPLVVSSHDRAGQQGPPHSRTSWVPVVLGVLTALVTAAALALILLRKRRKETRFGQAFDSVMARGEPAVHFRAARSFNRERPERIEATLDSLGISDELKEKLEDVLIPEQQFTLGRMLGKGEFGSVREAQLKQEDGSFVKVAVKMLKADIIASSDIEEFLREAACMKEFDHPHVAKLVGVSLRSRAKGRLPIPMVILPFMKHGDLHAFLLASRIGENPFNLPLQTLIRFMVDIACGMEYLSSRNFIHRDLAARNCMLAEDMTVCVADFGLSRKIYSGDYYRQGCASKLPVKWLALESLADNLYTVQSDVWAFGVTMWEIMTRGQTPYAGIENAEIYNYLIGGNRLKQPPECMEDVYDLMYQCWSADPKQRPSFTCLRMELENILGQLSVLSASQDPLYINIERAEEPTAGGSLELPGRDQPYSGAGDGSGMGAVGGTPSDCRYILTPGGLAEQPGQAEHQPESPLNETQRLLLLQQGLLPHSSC

[10] = kinase MAP3K1, compound at 1 μM

panel of more than 300 wild-type and mutant kinases (313 kinase panel) (Homo sapiens, UniProt Q9Y243), sequence (Q9Y243 whole entry, change not shown): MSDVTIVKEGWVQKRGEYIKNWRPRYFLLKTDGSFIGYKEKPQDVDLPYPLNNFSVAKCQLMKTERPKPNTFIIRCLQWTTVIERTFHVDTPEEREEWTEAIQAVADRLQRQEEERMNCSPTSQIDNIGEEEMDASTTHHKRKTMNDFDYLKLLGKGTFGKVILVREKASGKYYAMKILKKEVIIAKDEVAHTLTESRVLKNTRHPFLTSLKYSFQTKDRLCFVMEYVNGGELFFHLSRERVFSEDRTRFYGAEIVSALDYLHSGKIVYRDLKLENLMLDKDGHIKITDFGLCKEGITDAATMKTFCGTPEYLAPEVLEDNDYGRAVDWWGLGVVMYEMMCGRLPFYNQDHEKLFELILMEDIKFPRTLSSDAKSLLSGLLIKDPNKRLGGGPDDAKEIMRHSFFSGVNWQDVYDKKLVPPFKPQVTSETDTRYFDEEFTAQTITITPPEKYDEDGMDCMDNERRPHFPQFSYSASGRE
panel of more than 300 wild-type and mutant kinases (313 kinase panel) (Homo sapiens, UniProt Q13233), sequence (Q13233 whole entry, change not shown): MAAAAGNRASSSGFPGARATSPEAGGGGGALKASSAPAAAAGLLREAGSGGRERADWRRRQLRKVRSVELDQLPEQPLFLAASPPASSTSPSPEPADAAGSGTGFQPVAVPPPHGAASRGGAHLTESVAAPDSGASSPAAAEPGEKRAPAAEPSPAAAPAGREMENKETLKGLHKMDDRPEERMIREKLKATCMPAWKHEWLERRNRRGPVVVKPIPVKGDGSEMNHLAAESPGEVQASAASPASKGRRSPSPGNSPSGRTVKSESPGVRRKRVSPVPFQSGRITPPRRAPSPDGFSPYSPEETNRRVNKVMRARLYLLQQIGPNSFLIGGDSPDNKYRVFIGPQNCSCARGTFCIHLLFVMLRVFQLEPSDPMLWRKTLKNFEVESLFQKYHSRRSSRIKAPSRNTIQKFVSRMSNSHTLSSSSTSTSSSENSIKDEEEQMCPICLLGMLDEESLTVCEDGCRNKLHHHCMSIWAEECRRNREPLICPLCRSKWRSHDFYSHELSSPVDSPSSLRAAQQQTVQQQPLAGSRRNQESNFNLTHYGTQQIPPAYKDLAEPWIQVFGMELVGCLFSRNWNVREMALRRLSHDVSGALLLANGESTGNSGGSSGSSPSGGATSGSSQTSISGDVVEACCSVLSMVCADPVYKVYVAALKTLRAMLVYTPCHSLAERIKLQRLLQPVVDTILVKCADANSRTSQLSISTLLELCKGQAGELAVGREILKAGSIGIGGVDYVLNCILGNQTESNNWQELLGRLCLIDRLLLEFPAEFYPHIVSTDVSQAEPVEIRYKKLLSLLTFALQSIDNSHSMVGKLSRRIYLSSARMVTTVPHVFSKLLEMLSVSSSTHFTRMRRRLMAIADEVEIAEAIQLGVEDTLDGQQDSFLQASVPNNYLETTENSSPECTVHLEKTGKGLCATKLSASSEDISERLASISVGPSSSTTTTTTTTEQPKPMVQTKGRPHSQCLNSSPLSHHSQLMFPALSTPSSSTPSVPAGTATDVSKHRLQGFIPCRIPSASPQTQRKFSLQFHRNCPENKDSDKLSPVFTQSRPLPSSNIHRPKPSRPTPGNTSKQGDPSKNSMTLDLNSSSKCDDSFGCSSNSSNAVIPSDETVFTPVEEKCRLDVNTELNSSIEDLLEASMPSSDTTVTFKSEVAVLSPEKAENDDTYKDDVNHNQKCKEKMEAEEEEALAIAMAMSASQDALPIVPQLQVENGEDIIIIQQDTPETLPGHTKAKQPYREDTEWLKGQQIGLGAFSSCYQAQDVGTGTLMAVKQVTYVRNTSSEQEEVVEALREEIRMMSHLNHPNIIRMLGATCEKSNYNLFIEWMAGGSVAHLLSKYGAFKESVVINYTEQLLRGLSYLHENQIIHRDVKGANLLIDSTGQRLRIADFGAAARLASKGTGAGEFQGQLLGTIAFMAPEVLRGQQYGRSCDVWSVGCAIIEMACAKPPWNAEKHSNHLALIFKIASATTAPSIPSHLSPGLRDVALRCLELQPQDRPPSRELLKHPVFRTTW
panel of more than 300 wild-type and mutant kinases (313 kinase panel) (Homo sapiens, UniProt Q8N4C8), sequence (Q8N4C8 whole entry, change not shown): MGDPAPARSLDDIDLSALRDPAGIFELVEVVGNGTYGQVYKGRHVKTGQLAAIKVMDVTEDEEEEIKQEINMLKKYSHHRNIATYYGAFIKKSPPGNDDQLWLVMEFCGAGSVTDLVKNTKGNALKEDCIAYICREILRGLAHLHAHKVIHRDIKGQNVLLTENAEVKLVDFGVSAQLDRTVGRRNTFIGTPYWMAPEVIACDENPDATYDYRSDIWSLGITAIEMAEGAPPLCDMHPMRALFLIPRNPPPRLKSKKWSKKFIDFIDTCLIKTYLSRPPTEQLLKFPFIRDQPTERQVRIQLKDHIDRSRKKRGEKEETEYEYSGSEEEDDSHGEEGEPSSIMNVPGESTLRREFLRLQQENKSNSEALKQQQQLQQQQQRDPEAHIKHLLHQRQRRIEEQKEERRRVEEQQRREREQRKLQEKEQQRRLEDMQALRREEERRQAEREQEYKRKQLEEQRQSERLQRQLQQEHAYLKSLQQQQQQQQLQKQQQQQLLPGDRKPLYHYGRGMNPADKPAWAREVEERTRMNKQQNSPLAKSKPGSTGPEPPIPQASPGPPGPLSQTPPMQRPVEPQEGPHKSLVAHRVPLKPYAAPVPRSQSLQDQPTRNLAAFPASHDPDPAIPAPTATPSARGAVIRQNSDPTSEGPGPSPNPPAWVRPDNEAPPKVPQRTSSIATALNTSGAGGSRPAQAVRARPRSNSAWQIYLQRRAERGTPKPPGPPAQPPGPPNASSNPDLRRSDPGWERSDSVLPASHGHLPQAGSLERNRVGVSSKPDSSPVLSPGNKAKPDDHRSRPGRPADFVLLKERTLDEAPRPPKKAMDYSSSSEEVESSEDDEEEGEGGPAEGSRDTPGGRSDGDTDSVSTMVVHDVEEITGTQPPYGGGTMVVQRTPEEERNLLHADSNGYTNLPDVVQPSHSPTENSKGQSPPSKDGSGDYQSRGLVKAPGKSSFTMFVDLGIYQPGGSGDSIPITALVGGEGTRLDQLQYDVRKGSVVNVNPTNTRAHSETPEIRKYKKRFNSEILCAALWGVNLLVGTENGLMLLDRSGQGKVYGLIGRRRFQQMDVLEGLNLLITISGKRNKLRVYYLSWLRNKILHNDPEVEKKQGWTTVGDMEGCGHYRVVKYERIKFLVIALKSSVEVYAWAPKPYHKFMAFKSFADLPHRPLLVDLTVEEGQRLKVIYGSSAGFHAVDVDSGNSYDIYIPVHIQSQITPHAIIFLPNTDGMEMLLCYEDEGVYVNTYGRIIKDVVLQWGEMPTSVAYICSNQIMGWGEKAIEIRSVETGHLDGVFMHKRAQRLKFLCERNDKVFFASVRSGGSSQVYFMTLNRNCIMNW

SMILES | %-inhibition of MAP3K1 [1, 10] | %-inhibition, AKT3 ([2]; kinase AKT3, 1 μM compound) | %-inhibition of Erk5 ([3]; kinase Erk5, compound at 1 μM) | %-inhibition of p70S6Kβ ([4]; kinase p70S6Kβ, 1 μM) | %-inhibition of TEC ([5]; kinase TEC, 1 μM) | %-inhibition of MINK ([6]; kinase MINK, 1 μM) | %-inhibition of p38γ ([7]; kinase p38γ, 1 μM) | %-inhibition of p38β ([8]; kinase p38β, 1 μM) | %-inhibition of TYRO3 ([9]; kinase TYRO3, compound at 1 μM) | %-inhibition of MAP3K1 ([1]; 1 µM) | %-inhibition, AKT3 ([2]; 1 µM) | %-inhibition of TYRO3 ([9]; 1 µM) | %-inhibition of Erk5 ([3]; 1 µM) | %-inhibition of p38γ ([7]; 1 µM) | %-inhibition of p38β ([8]; 1 µM) | %-inhibition of p70S6Kβ ([4]; 1 µM) | %-inhibition of TEC ([5]; 1 µM) | %-inhibition of MINK ([6]; 1 µM)
C[C@@H](Oc1cc(-c2cnn(C3CCNCC3)c2)cnc1N)c1c(Cl)ccc(F)c1Cl [crizotinib] | 28% | -1.83% | 45% | 6% | 1.53% | 0% | – | – | – | – | – | – | – | – | – | – | – | –
CC(C)(C)c1nc(-c2cccc(NS(=O)(=O)c3c(F)cccc3F)c2F)c(-c2ccnc(N)n2)s1 [dabrafenib] | -40% | – | 0.144% | -0.554% | 38% | -0.772% | 0.311% | 5.3% | – | – | – | – | – | – | – | – | – | –
COc1cc2c(Nc3ccc(Br)cc3F)ncnc2cc1OCC1CCN(C)CC1 [vandetanib] | -7.43% | -0.887% | 9% | 2.58% | 15% | 24% | -3.79% | 7% | 94% | – | – | – | – | – | – | – | – | –
O=S(=O)(c1cccc2cnccc12)N1CCCNCC1 [fasudil] | 1.37% | 6% | -3.32% | 37% | -7% | -1.41% | 1.68% | -2.17% | -1.23% | – | – | – | – | – | – | – | – | –
C#Cc1cccc(Nc2ncnc3cc(OCCOC)c(OCCOC)cc23)c1 [erlotinib] | – | – | – | – | – | – | – | – | – | 6% | 8% | 20% | 21% | 4.5% | -4% | 13% | 20% | 19%
COc1cc2nccc(Oc3ccc(NC(=O)C4(C(=O)Nc5ccc(F)cc5)CC4)cc3)c2cc1OC [cabozantinib] | 36% | -3% | -2% | -3.52% | 43% | -2% | 23% | 33% | – | – | – | – | – | – | – | – | – | –
Cc1ccc(C(=O)Nc2ccc(CN3CCN(C)CC3)c(C(F)(F)F)c2)cc1C#Cc1cnc2cccnn12 [ponatinib] | -9% | – | 3.45% | 78% | 79% | 80% | 86% | 101% | 45% | – | – | – | – | – | – | – | – | –
CCCS(=O)(=O)Nc1ccc(F)c(C(=O)c2c[nH]c3ncc(-c4ccc(Cl)cc4)cc23)c1F [vemurafenib] | 13% | -0.678% | 0.709% | 0.235% | -0.191% | 10% | -0.299% | 24% | 3.16% | – | – | – | – | – | – | – | – | –
CCN(CC)CCNC(=O)c1c(C)[nH]c(/C=C2\C(=O)Nc3ccc(F)cc32)c1C [sunitinib] | – | – | 22% | – | – | – | – | – | 98% | – | – | – | – | – | – | – | – | –
Cc1cn(-c2cc(NC(=O)c3ccc(C)c(Nc4nccc(-c5cccnc5)n4)c3)cc(C(F)(F)F)c2)cn1 [nilotinib] | -18% | 1.58% | -3.64% | -3.7% | -0.144% | 3% | -15% | 96% | – | – | – | -32% | – | – | – | – | – | –
CS(=O)(=O)CCNCc1ccc(-c2ccc3ncnc(Nc4ccc(OCc5cccc(F)c5)c(Cl)c4)c3c2)o1 [lapatinib] | 1.76% | 5% | – | 8% | 0% | – | -1.19% | -10% | 13% | – | – | – | -0.8% | – | – | – | – | -0.581%
CNC(=O)c1cc(Oc2ccc(NC(=O)Nc3ccc(Cl)c(C(F)(F)F)c3)c(F)c2)ccn1 [regorafenib] | 4% | -4.23% | 16% | 1.41% | -8% | 24% | 16% | 98% | 34% | – | – | – | – | – | – | – | – | –
Cc1nc(Nc2ncc(C(=O)Nc3c(C)cccc3Cl)s2)cc(N2CCN(CCO)CC2)n1 [dasatinib] | – | – | 5% | – | – | 40% | – | – | – | – | – | – | – | – | – | – | – | –
Cc1ccc(Nc2nccc(N(C)c3ccc4c(C)n(C)nc4c3)n2)cc1S(N)(=O)=O [pazopanib] | 37% | -0.112% | 16% | 1.69% | 48% | 35% | -5% | 18% | 27% | – | – | – | – | – | – | – | – | –
COc1cc(Nc2c(C#N)cnc3cc(OCCCN4CCN(C)CC4)c(OC)cc23)c(Cl)cc1Cl [bosutinib] | 60% | – | 3.35% | – | 58% | 100% | -6% | -0.299% | – | – | – | – | – | – | – | – | – | –
CN(C)C/C=C/C(=O)Nc1cc2c(Nc3ccc(F)c(Cl)c3)ncnc2cc1O[C@H]1CCOC1 [afatinib] | – | – | – | 3.42% | – | – | – | – | – | – | – | – | – | – | – | – | – | –
